Assay results from patent US20050048508A1, “Trehalose receptor and method for detecting trehalose with the same” (KABUSHIKI KAISHA HAYASHIBARA SEIBUTSU KAGAKU KENKYUJO, priority 2002, published 2005).

Tests used:
[1] = relative to sucrose; cited from earlier work
[2] = biological target: T1, trehalose receptor (G protein α-subunits and T1R3) (Mus musculus, UniProt Q925D8, I706N); assay: Quantitation of trehalose using trehalose receptor, 96-well microplate fluorescence assay; type: cell-based; conditions: for Fluorescence intensity (integral value): 0.1 ml/well added to 100 µl cell suspension, ex 494 nm, em 516 nm
T1 construct: expressed in transfected cells; host or cells: 293 cells, RCB 1637 (human embryonic kidney)
T1 sequence (Q925D8 21-858 I706N): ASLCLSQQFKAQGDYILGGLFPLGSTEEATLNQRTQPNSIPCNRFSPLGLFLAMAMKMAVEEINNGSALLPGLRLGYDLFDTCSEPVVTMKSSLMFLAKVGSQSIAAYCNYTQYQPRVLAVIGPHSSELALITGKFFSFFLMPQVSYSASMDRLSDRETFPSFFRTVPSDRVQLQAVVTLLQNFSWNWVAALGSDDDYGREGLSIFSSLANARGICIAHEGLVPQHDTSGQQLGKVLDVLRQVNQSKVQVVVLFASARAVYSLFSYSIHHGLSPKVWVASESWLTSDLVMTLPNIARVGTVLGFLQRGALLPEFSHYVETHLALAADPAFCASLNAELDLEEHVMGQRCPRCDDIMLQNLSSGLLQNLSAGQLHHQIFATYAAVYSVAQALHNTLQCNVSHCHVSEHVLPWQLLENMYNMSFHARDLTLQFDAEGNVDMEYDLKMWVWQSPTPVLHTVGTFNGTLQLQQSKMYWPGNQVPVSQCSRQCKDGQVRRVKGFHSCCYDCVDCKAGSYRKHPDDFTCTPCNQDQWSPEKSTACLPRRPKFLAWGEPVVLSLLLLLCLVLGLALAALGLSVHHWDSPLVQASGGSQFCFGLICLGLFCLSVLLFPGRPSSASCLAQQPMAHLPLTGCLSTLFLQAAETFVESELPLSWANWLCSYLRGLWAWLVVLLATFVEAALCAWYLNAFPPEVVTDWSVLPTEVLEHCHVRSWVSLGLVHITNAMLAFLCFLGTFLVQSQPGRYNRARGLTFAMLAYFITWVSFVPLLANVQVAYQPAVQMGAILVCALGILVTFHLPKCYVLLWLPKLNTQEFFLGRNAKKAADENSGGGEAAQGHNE
Method: The captioned reactivity test was conducted according to a conventional intracellular calcium ion assay: 293 Cells prepared in Example 3, capable of coexpressing the G protein α-subunits and the sweet taste receptor(s), were cultured in a plastic petri dish for cell culture until reaching its confluent phase. Thereafter, the cells were detached from the inner surface of the petri dish with a 0.05% (v/v) trypsin solution and a 0.53 mM EDTA solution, suspended in D-MEM supplemented with 10% (v/v) fetal calf serum to give a cell density of 1×10^6 cells/ml, and allowed to intake “FLUO-4. AM”, a reagent for detecting intracellular calcium ion commercialized by Molecular Probes Inc., Ore., USA, by adding to the cell suspension to give a final concentration of 2 μM and incubating the cells at 37 ° C. for 30 to 90 min. The resulting cells were washed with a buffer for detecting calcium ion, which contained 10 mM HEPES (pH 7.4), 130 mM sodium chloride, 5.4 mM potassium chloride, 2 mM calcium chloride, 1 mM magnesium chloride, 5.5 mM D-glucose, 0.1% (v/v) calf serum albumin, and 1 mM sodium pyruvate to remove the reagent remained extracellularly; suspended in a fresh preparation of the same buffer to give a cell density of 2.67 ×10^7 cells/ml; filtered with a membrane with a pore size of 100 μm mesh; and allowed to stand at 25° C. for 30 min. Two milliliters of the resultant cell suspension was injected into a glass cuvette, commercialized by Hitachi, Ltd., Tokyo, Japan, and analyzed on “HITACHI 650-40”, a fluorescence spectrophotometer commercialized by Hitachi, Ltd., Tokyo, Japan.
One hundred microliter aliquots of the cell suspension in Example 4 were placed in commercially available 96-well microplates, followed by placing 0.1 ml/well of any of trehalose solutions with different concentrations of 1, 2, 5, 10, 20, 50, 100, 200, 500, 1,000, and 2,000 mM, prepared with trehalose and the same buffer for calcium ion assay as used in Example 4; and assayed on “FLUOROSCAN ASCENT W/DF”, an automatic fluorescence spectrophotometer for multi-plates, Dainippon Pharmaceutical Co., Ltd., Tokyo, Japan, at an excitation wavelength of 494 nm and a fluorescence wavelength of 516 nm, followed by calculating the integral values for the detected fluorescence intensities.

Concentration at which trehalose is detectable ([2]; trehalose receptor cells, fluorescence assay of Table 5): ≥ 5 mM
Fluorescence intensity (integral value) ([2]; trehalose solution 1 mM): 0.2
Fluorescence intensity (integral value) ([2]; trehalose solution 2 mM): 0.5
Fluorescence intensity (integral value) ([2]; trehalose solution 5 mM): 10
Fluorescence intensity (integral value) ([2]; trehalose solution 10 mM): 19
Fluorescence intensity (integral value) ([2]; trehalose solution 20 mM): 29
Fluorescence intensity (integral value) ([2]; trehalose solution 50 mM): 45
Fluorescence intensity (integral value) ([2]; trehalose solution 100 mM): 82
Fluorescence intensity (integral value) ([2]; trehalose solution 200 mM): 159
Fluorescence intensity (integral value) ([2]; trehalose solution 500 mM): 421
Fluorescence intensity (integral value) ([2]; trehalose solution 1,000 mM): 670
Fluorescence intensity (integral value) ([2]; trehalose solution 2,000 mM): 720
SMILES: OC[C@H]1O[C@H](O[C@H]2O[C@H](CO)[C@@H](O)[C@H](O)[C@H]2O)[C@H](O)[C@@H](O)[C@@H]1O [Trehalose]
Sweetening power [1]: 45%
